Laboratory results published in patent US12070465B2, “Compositions and methods for the prevention and treatment of hearing loss” (Ting Therapeutics LLC, priority 2020, dated 2024).

Legend:
[1] = tested on: zebrafish neuromast hair cells; test: Zebrafish model for excitotoxicity (kainic acid induced hair cell death); assay type: in vivo; settings: for performance compared with Piperlongumine against kainic acid (KA) induced hair cell death: KA 300 μM 1 hour, then derivative 2 hours at 1 nM to 100 μM, better at at least one dose
Description: 5dpf Tg(Brn3c:mGFP) larvae were used for the experiments. Zebrafish were pretreated with kainic acid for one hour (300 μM) to mimic the excitotoxic damage induced by noise exposure, and then, post-treated with Piperlongumine-25 for 2 hours (al concentrations of 0.001 μM; 0.1 μM; 10 μM; and 100 μM). Control animal were treated with DMSO (−) or Piperlongumine-25 alone (+). Animals were then fixed and immunostained for GFP. Quantification was done by assessing three neuromasts in the same anatomic location of each animal (n=5). The data is plotted as mean+SD. Statistical testing was done with One-way ANOVA and Dunnett post-hoc test (P<0.0001 compared to KA).
Subsequently, animals were transferred to E3 water for 5 hours and fixed in 4% paraformaldehyde (PFA) overnight. Neuromast HCs were immunolabeled with anti-otoferlin (HCS-1, DSHB) and anti-GFP (NB100-1614, Novus Biologicals). These two markers were used to detect and count neuromast HCs to reduce the chances of missing some of the HCs after the treatment since as it was previously noticed that incubation with the compounds can affect GFP expression more difficult to detect under a fluorescence microscope. Otic, middle, and opercular neuromasts were identified, and HCs at SO3 (supraorbital line neuromast) and O1-2 (Otic line neuromasts) were manually counted using a Zeiss AxioSkop 2 fluorescence microscope with a 40× oil objective. Control animals were treated with DMSO (−) or Neo or GM alone (+) Animals were then fixed and immunostained for GFP and otoferlin. Quantification was done by assessing three neuromasts in the same anatomic location of each animal (n=5). The data is plotted as mean+SD. Statistical testing was done with One-way ANOVA and Dunnett post-hoc test (*P<0.05, **P<0.01, ***P<0.001 compared to either Neo or GM, respectively). […] For the screening of piperlongumine derivatives for protection against noise-induced hearing loss we employed a zebrafish model that mimics excitotoxic damage. Five-day post-fertilization (dpf) Tg(brn3c:GFP) larvae were incubated with 300 μM of KA for 1 hour followed by piperlongumine-25 for 2 hours at 0.001 μM, 0.1 μM, 10 μM, and 100 μM. DMSO and KA were used as controls.
5 dpf fish were incubated with KA 300 μM for 1 hour followed by a two-hour incubation with one of the piperlongumine derivatives at 1 nM to 100 μM. Animals were fixed and immunostained for the hair cell marker, otoferlin. Neuromast hair cells were counted under a fluorescence microscope. At least 3 neuromast of the rostral lateral line were inspected per fish, in a total of 6 fish per treatment. Results are presented as mean+/−SD. Control, KA only, PG only, PG+KA, derivatives that were no protective against excitotoxicity, derivatives that performed better than PG.
5dpf fish were incubated with KA 300 μM for 1 hour followed by one of the PG derivatives at different concentrations for additional 2 hours. Animals were fixed and immunostained for otoferlin. Neuromast hair cells were quantified in at least 3 rostral neuromasts per fish in a total of 6 fish per treatment. Results are expressed as mean+/−SD. Statistical analysis: One-way ANOVA *P<0.05, **P<0.01, P<0.001 versus KA alone. These five Piperlongumine derivatives performed better than Piperlongumine at least one dose.

[2] = tested on: zebrafish lateral line neuromast hair cells; test: Zebrafish lateral line neuromast hair cell counts after aminoglycoside (neomycin or gentamycin); assay type: in vivo, Danio rerio; settings: 5 dpf larvae
Text: Now referring to FIGS. 5A-C,(E)-1-(3-(3,4,5-trimethoxyphenyl)acryloyl)-S,6-dihydropyridin-2(1H)-one (Piperlongumine) protects from aminoglycoside induced hair cell loss in zebrafish lateral line neuromasts in vivo. Zebrafish lateral line neuromast HC counts are commonly used in vivo models for screening otoprotectants. Danio rerio experimental larvae were obtained by pair mating of adult fish maintained at Creighton University by standard methods approved by the Institutional Animal Care and Use Committee. Fish used were Tg(pou4f3:mGFP) expressing a membrane bound GFP in HCs. […] The lateral-line neuromasts of zebrafish are a valuable system for testing protectivity of compounds against aminoglycoside toxicity in vivo, as their HCs are considered homologous to those in the mammalian inner ear and are readily accessible to drugs. […]
Subsequently, animals were transferred to E3 water for 5 hours and fixed in 4% paraformaldehyde (PFA) overnight. […] These two markers were used to detect and count neuromast HCs to reduce the chances of missing some of the HCs after the treatment since as it was previously noticed that incubation with the compounds can affect GFP expression more difficult to detect under a fluorescence microscope. […] Quantification was done by assessing three neuromasts in the same anatomic location of each animal (n=5). […]

[3] = tested on: C57BL/6 (Cdh23 corrected) mice; test: General toxicity in mice over the 17-day treatment regimen; assay type: in vivo, mouse; settings: 40 mg/kg b.w. for 17 days, with and without kanamycin
Description: (§1) C57BI6 (Cdh23 corrected) (6-7 weeks old) were exposed to vehicle+kanamycin (Veh+Kan) (700 mg/kg b.w. twice a day for 14 days) (shown as circles with four breaks); or (E)-1-(3-(3,4,5-trimethoxyphenyl)acryloyl)-S,6-dihydropyridin-2(1H)-one+kanamycin (PLM+Kan) with (E)-1-(3-(3,4,5-trimethoxyphenyl)acryloyl)-S,6-dihydropyridin-2(1H)-one (40 mg/kg b.w. once a day for 17 days) (shown as circle no breaks). Age match controls are shown (age, shown as circle with three breaks). Auditory brainstem response (ABR) thresholds were recorded for frequencies (4 kHz, 5.6 kHz, 8 kHz, 16 kHz, 22.6 kHz, 32 kHz, 45.2 kHz, and 64 kHz) before and after treatment protocol. […] Statistical analysis was done with repeated measures ANOVA between groups.
Now referring to FIG. 8A, Piperlongumine protects from aminoglycoside toxicity in mice in vivo. 6-7-week-old C57BL/6 (Cdh23 corrected) were used, with a mix of males and females across experiments. Procedures were approved by the IACUC committee of the Creighton University.) Mice were treated with Piperlongumine (40 mg/kg b.w., for 17 days, IP) with or without kanamycin treatment (700 mg/kg b.w. for 14 days twice a day, s.q.). Piperlongumine's protection against hearing impairment loss was assessed by measuring ABR threshold shifts in the mouse ear.
Age-control group mice were administered saline. […] Data are presented as mean+SD, n=3-4/group.

[4] = tested on: mouse embryonic fibroblast (MEFs); test: MTT viability of mouse embryonic fibroblasts exposed to aminoglycosides; assay type: cell-based; settings: 15 hours
Description: (§2) MEFs were incubated for 15 hours with neomycin (100 μM) or gentamicin (8 μM) with or without Piperlongumine (0.1 nM-5 μM). Cell viability was assessed employing MTT (3-(4-,5-dimethylthiazol-2-yl)-2,5-diphenyltetrazolium bromide) viability kit test (Thermo Fisher). The data is plotted as mean+SD. Statistical testing was done with One-way ANOVA and Dunnett post-hoc test (*P<0.05, **P<0.01 compared to either Neo or GM, respectively).
as §2, with “Now referring to FIG. 7 (E)-1-(3-(3,4,5-trimethoxyphenyl)acryloyl)-S,6-dihydropyridin-2(1H)-one protects mouse embryonic fibroblast (MEFs) against aminoglycosides. MEFs” for “MEFs”, “without(E)-1-(3-(3,4,5-trimethoxyphenyl)acryloyl)-S,6-dihydropyridin-2(1H)-one” for “without Piperlongumine”, “μM) at 0.1 nM, 0.5 nM, 1 nM, 5 nM, 10 nM, 50 nM, 100 nM, and 500 nM.” for “μM).”

[5] = tested on: C57BL/6 (Cdh23 corrected) mice; test: ABR thresholds in kanamycin exposed mice; assay type: in vivo, mouse; settings: at 22.6 kHz; 40 mg/kg b.w. once a day for 17 days IP; kanamycin 700 mg/kg twice a day for 14 days; p=0.0408
Description: as §1
Now referring to FIG. 8A, Piperlongumine protects from aminoglycoside toxicity in mice in vivo. 6-7-week-old C57BL/6 (Cdh23 corrected) were used, with a mix of males and females across experiments. […] Piperlongumine's protection against hearing impairment loss was assessed by measuring ABR threshold shifts in the mouse ear.
Animals were anesthetized with a mixture of ketamine/xylazine before ABR assessment. […] Evoked responses were amplified (20x), bandpass filtered (300-3,000 Hz) and average of 512 responses of 10 ms duration was recorded. […]

## O=C(/C=C/c1ccc2c(c1)OC(F)(F)O2)N1CCCCCC1=O [PG 53]
[1]
  performance compared with Piperlongumine against kainic acid (KA) induced hair cell death: better performance than Piperlongumine

## COc1cccc(/C=C/C(=O)N2CCCCC2=O)c1 [PG25]
[1]; 300 μM KA 1 hour, then compound 2 hours at 0.001 μM, 0.1 μM, 10 μM, 100 μM
  protection of neuromast hair cells from excitotoxic damage induced by kainic acid: protects neuromast hair cells from excitotoxic damage
[1]
  performance compared with Piperlongumine against kainic acid (KA) induced hair cell death: better performance than Piperlongumine

## COc1cc(/C=C/C(=O)N2CCC=CC2=O)cc(OC)c1OC [Piperlongumine, (E)-1-(3-(3,4,5-trimethoxyphenyl)acryloyl)-S,6-dihydropyridin-2(1H)-one]
[2]; 1 hour pre-incubation then co-incubation with 100 μM gentamycin for 1 hour
  protection from gentamycin-induced hair cell death: protects zebrafish neuromasts from gentamycin-induced hair cell death
[2]; 1 hour pre-incubation then co-incubation with 200 μM Neomycin for 30 minutes
  protection from neomycin-induced hair cell death: protects zebrafish neuromasts from neomycin-induced hair cell death
[3]
  general toxicity: not toxic
[4]; gentamicin 8 μM, observed at 0.1 nM to 1 nM
  protection of MEFs against gentamycin (cell viability, MTT): 100%
[4]; neomycin 100 μM, observed at 0.1 nM to 10 nM
  protection of MEFs against neomycin (cell viability, MTT): 100%
[5]
  protection of ABR threshold against kanamycin: significant protection

## O=C(/C=C/c1ccccc1)N1CCC1=O [PG 18]
[1]
  performance compared with Piperlongumine against kainic acid (KA) induced hair cell death: better performance than Piperlongumine

## O=C(/C=C/c1ccc2c(c1)OC(F)(F)O2)N1CCCCC1=O [PG 54]
[1]
  performance compared with Piperlongumine against kainic acid (KA) induced hair cell death: better performance than Piperlongumine

## O=C(/C=C/c1ccco1)N1CCC1=O [PG3]
[1]
  performance compared with Piperlongumine against kainic acid (KA) induced hair cell death: better performance than Piperlongumine
